{"source": "patent US20260306526A1", "about": "“COMBINATION THERAPY FOR BACTERIAL INFECTIONS COMPRISING ZINC-CHELATOR, BETA-LACTAM ANTIBIOTIC AND SERINE BETA-LACTAMASE INHIBITOR” (priority 2023, published 2026)", "tested_on": "Klebsiella pneumoniae ST147", "assay": "MIC determination, fixed ratio of sBLI to antibiotic (Examples 5-7)", "assay_type": "cell-based", "conditions": "Example 7; with MEM and AVI (fixed ratio); NDM-1 and KPC-2; caMHB, 29.4 μM Zn2+", "procedure": "Antimicrobial susceptibility testing (AST) by broth microdilution (MIC determination) was performed according to The European Committee on Antimicrobial Susceptibility Testing (EUCAST) guidelines (see Reading guide for broth microdilution Version 5.0, 2024: https://www.eucast.org).\nSterile clear round bottom polystyrene (non-treated) 96-well microplates (Corning 3788) were used for making serial two-fold dilutions of the antibiotic and the sBLI in cation-adjusted Mueller Hinton II broth (caMHB; Thermo Scientific, T3462, containing 29.4 μM Zn^2+), across the columns of the microtiter plate (256-0.06 μg/mL; columns 1-12). The checkerboard plates were all made by keeping the sBLI at a fixed ratio relative to antibiotic (absolute concentrations of each, in μg/mL) to all wells containing sample in each plate. Additionally, a set of samples was included in each test plate, where the zinc chelator was added, at various fixed concentrations, of 16 μg/mL, 8 μg/mL and/or 4 μg/mL (as specified in each Example). All sample wells contained growth medium (caMHB), and inoculated bacteria at a final inoculum between 3-7×10^5 CFU/mL. […]", "note": "“And” between values parts separate entries of the source, which are not always exact repeats. Equal entries are not always repeated."}
{"compound": "CN(C[C@H](O)[C@@H](O)[C@H](O)[C@H](O)CO)C(=O)c1ccc(CN(Cc2ccccn2)Cc2ccccn2)nc1", "note": "[zinc chelator]", "values": [{"measurement": "Synergy with the zinc chelator observed at concentration", "result": "16 µg/mL and 8 µg/mL"}]}
